According to patent publication US20220162240A1, “MITOCHONDRIA-TARGETED ISOKETAL/ISOLEVUGLANDIN SCAVENGERS” (Vanderbilt University, priority 2019, published 2022):
Entries after “also recorded” stand apart in the source; their conditions may differ.

Legend:
endothelial NO = experiment: Endothelial NO by ESR and Fe(DETC)2 in Ang II-infused mice; assay type: in vivo; settings: 0.1 g/L in drinking water, ESR
Method: (§1) (A) Aortic […] was measured by DHE probe and HPLC. (B) Endothelial NO was analyzed by ESR and Fe(DETC)2. C57Bl/6J mice were infused with Ang II ([…]) and mito2HOBA was provided in the drinking water (0.1 g/L).
(§2) The present inventors examined vascular oxidative stress by measurements of aortic ? using fluorescent ? probe DHE and HPLC, and analysis of endothelial NO using Electron Spin Resonance and specific NO spin trap Fe(DETC)2.
(§3) Among the other actions O2^• inactivates endothelial nitric oxide (NO), promotes vasoconstriction and vascular remodeling and ultimately increases systemic vascular resistance. Decreased NO bioavailability is therefore a hallmark of endothelial oxidative stress in hypertension due to NO oxidation, reduced NO production and eNOS uncoupling. We measured aortic O2^• using the fluorescent O2^• probe DHE and HPLC as we described previously. Endothelial NO was quantified by Electron Spin Resonance (ESR) and specific NO spin trap Fe(DETC)2.

[1] = system: mitochondrial isoLG protein adducts; experiment: Western blot of isoLG adducts (D11 antibody) in heart mitochondria of Ang II-infused mice; assay type: in vivo; settings: 0.1 g/L in drinking water, 14 days
Method: Mito2HOBA was supplemented in drinking water (0.1 g/L). […] Results are mean±SEM. *P<0.01 vs Sham, **P<0.01 vs Ang II (n=8).
(§4) Free radical oxidation of arachidonic acid produces highly reactive isolevuglandins (isoLG) which causes mitochondrial dysfunction by opening of the mitochondrial permeability transition pore (mPTP). […] The functional role of mitochondrial isoLG was tested in vivo using angiotensin II model of hypertension. C57Bl/6J mice were infused with angiotensin II (0.7 mg/kg/day) or saline (Sham) and received mito2HOBA in the drinking water (0.1 g/L). […] Decrease of NO is a hallmark of endothelial dysfunction in hypertension due to vascular oxidative stress.

[2] = system: human aortic endothelial cells (HAECs); experiment: Tolerability in cultured HAEC; assay type: cell-based
[3] = system: human aortic endothelial cells (HAEC); experiment: Mitochondrial superoxide in HAEC incubated with Ang II plus TNFα (MitoSOX/HPLC); assay type: cell-based; settings: 50 nM, Ang II + TNFα 24 hours, MitoSOX/HPLC
Method: as §4
(§5) Mitochondrial O2^• and cardiolipin oxidation (specific marker of mitochondrial dysfunction and oxidative stress) in cultured human aortic endothelial cells (HAEC) were incubated with Ang II and TNFα.

[4] = system: Ang II-infused C57Bl/6J mice; experiment: Blood pressure in angiotensin II-induced hypertension, mito2HOBA in drinking water; assay type: in vivo; settings: Ang II 0.7 mg/kg/day, compound 0.1 g/L in drinking water
Method: (§6) (A) Blood pressure in C57Bl/6J mice infused with saline (Sham) or Ang II ([…]). Mito2HOBA was supplemented in drinking water (0.1 g/L). (B) Western blot of aorta mitochondria for isoLG adducts (D11 antibody), CypD, GCN5L1, Sirt3 and CypD acetylation (CypD i.p. and anti-Acetyl-K WB). Results are mean±SEM. *P<0.01 vs Sham, **P<0.01 vs Ang II (n=8).
(A) Blood pressure in C57Bl/6J wild type mice infused with either saline (Sham) or Ang II ([…]). Mito2HOBA was supplemented in drinking water (0.1 g/L). (B) Mitochondrial isoLG were measured by Western blot in the heart mitochondria using D11 antibody as we have previously described. Results are mean±SEM. *P<0.01 vs Sham, **P<0.01 vs Ang II (n=8).
(§7) Sham or Ang II-infused mice were supplemented with mito2HOBA in the drinking water (0.1 g/L) or plain water. […] Following 14 days of Ang II infusion, mice were sacrificed, aortas were isolated for Western blot studies. […] This causes an imbalance between mitochondrial acetylation and deacetylation pathways leading to hyperacetylation of mitochondrial proteins measured by Ac-K and CypD hyperacetylation.
The present inventors implanted an osmotic minipump with Ang II (0.7 mg/kg/day) or saline (Sham) in C57Bl/6J mice receiving mito2HOBA in the drinking water (0.1 g/L) or plain water. […]

aortic superoxide = experiment: Aortic superoxide by DHE probe and HPLC in Ang II-infused mice; assay type: in vivo; settings: 0.1 g/L in drinking water
Method: as §1, §2, §3

[5] = system: human aortic endothelial cells (HAEC); experiment: Cardiolipin oxidation in HAEC incubated with Ang II plus TNFα (LC/MS); assay type: cell-based; settings: 50 nM, Ang II + TNFα 24 hours
Method: as §4, §5

[6] = Method: as §4
The above example is a water soluble compound which can be supplied to cells in the media and provided to animals in the drinking water.

[7] = system: isoLG-Lysyl-Lactam protein adducts; experiment: LC/MS/MS of isoLG-Lys-Lactam protein adducts in kidney mitochondria of Ang II-infused mice; assay type: in vivo; settings: 0.1 g/L in drinking water
Method: (A) Representative LC/MS/MS chromatograms; (B) isoLG-Lys-Lactam levels in mitochondria isolated from kidneys of mice drinking water (Sham), mito2HOBA (0.1 g/L), and infused with Ang II (0.7 mg/kg/day). Results are mean±SEM (n=3). *P<0.05 vs Ang II.

kidney mitochondria = settings: Ang II-infused mice, 0.1 g/L in drinking water
Method: C57Bl/6J mice were infused with Ang II ([…]) and mito2HOBA in the drinking water (0.1 g/L). Following 14 days of Ang II infusion the animals were sacrificed and kidneys were isolated for mitochondrial studies. […] Respiratory control ratio (State 3/State 4) was measured in isolated kidney mitochondria with glutamate and malate […]. Control level is 100%. (B) Kidney ATP was measured in freshly isolated tissue by luciferase-based luminescent assay. Results are mean±SEM. *P<0.01 vs Sham, **P<0.01 vs Ang II (n=3-8).
(A) Respiratory control ratio (State 3/State 4) was measured in isolated kidney mitochondria with glutamate and malate. Control level is 100%. (B) Kidney ATP level was measured in freshly isolated tissue by luciferase-based luminescent assay. C57Bl/6J mice were infused with Ang II ([…]) and mito2HOBA was provided in the drinking water (0.1 g/L). Following 14 days of Ang II infusion the animals were sacrificed and kidneys were isolated for mitochondrial and ATP studies. Results are mean±SEM. *P<0.01 vs Sham, **P<0.01 vs Ang II (n=3-8).
The inventors analyzed kidney tissue isolated from control mice (Sham), mice drinking mito2HOBA, mice infused with Ang II and Ang II-infused mice supplemented with mito2HOBA (mito2HOBA+Ang II).
To show this, the present inventors analyzed kidney tissue isolated from control mice (Sham), mice drinking mito2HOBA (mito2HOBA), mice infused with Ang II (Ang II) and Ang II-infused mice supplemented with mito2HOBA (mito2HOBA+Ang II).

[8] = system: mitochondrial isoLG protein adducts; experiment: Western blot of isoLG adducts and CypD-isoLG (D11 antibody) in aorta mitochondria of Ang II-infused mice; assay type: in vivo
Method: as §6
FIG. 18 is a western blot analysis of isoLG protein adducts in mitochondria isolated from aorta dissected from C57Bl/6J mice infused with Ang II and treated with mito2HOBA (A). CypD-isoLG modification was determined by CypD immunoprecipitation and Western blot with anti-isoLG D11 antibody (B).
as §7
The potential CypD-isoLG adduct formation was determined by CypD immunoprecipitation and Western blot with anti-isoLG D11 antibody.

mice = experiment: Tolerability in mice receiving compound in drinking water; assay type: in vivo
CypD acetylation = experiment: Western blot of aorta mitochondria for GCN5L1, Sirt3, Ac-K and CypD acetylation in Ang II-infused mice; assay type: in vivo; settings: 0.1 g/L in drinking water; for CypD acetylation: CypD i.p. and anti-Acetyl-K WB
Method: as §6, §7
Hypertension impairs mitochondrial function and mito2HOBA attenuates mitochondrial dysfunction, and accumulation of mitochondrial isoLG in hypertension promotes CypD acetylation and mPTP opening, impairs mitochondrial respiration and reduces ATP. Scavenging of mitochondrial isoLG with mito2HOBA prevents these deleterious effects. The inventors analyzed kidney tissue isolated from control mice (Sham), mice drinking mito2HOBA, mice infused with Ang II and Ang II-infused mice supplemented with mito2HOBA (mito2HOBA+Ang II).

mitochondrial matrix = settings: TPP conjugate, given as example; cited from earlier work

4-(aminomethyl)-3-hydroxyphenoxy) butyl)triphenylphosphonium [mito2HOBA]
endothelial NO (endothelial NO): preserved endothelial NO; also recorded: preserves NO bioavailability | isoLG adducts in heart mitochondria [1]: reduced accumulation of isoLG adducts | tolerability by cultured HAECs [2]: well tolerated | concentration well tolerated by cultured HAECs ([2]; preliminary in vitro experiments): up to 200 nM | mitochondrial superoxide production / mitochondrial oxidative stress [3]: inhibited; also recorded: diminished mitochondrial oxidative stress; also recorded: inhibition of mitochondrial oxidative stress | Ang II-induced hypertension (blood pressure) [4]: significantly attenuates | Ang II-induced hypertension (blood pressure) ([4]; listed as Mito2HOBA): significantly attenuated | vascular (aortic) superoxide (aortic superoxide): reduced; also recorded: reduces vascular O2^• | cardiolipin oxidation [5]: prevented cardiolipin oxidation | cardiolipin oxidation ([5]; listed as Mito2HOBA): more effective in prevention of cardiolipin oxidation than 2HOBA | water solubility [6]: water soluble | isoLG-Lysyl-Lactam protein adducts in kidney mitochondria [7]: abolished isoLG-Lysyl-Lactam adducts formation | mPTP opening (Ca2+ retention capacity) in kidney mitochondria (kidney mitochondria; 14 days): attenuates mPTP opening; also recorded: reduces mPTP opening | mitochondrial respiration (respiratory control ratio State 3/State 4) (kidney mitochondria; kidney mitochondria with glutamate and malate): protects mitochondrial respiration | kidney ATP (kidney mitochondria; luciferase-based luminescent assay): preserves normal ATP production | isoLG adducts in aorta mitochondria ([8]; Ang II-infused mice, 0.1 g/L in drinking water, 14 days, D11 antibody): prevents accumulation of isoLG adducts; also recorded: attenuated accumulation of mitochondrial isoLG | protein isoLG adducts and CypD-isoLG in aortic mitochondria ([8]; CypD immunoprecipitation and Western blot with D11 antibody): diminished | tolerability by mice receiving it in drinking water (mice): well tolerated | dose in drinking water well tolerated (mice; preliminary in vivo experiments): 0.1 to 0.3 g/L | balance between GCN5L1 and Sirt3 in aorta mitochondria (CypD acetylation): corrects the imbalance between GCN5L1 and Sirt3 | mitochondrial Ac-K (acetylation of mitochondrial proteins) (CypD acetylation): reduces mitochondrial Ac-K | CypD acetylation (CypD acetylation): reduced CypD acetylation | CypD acetylation (CypD acetylation; listed as Mito2HOBA): prevents CypD hyperacetylation

CC1(C)CC(NC(=O)C[P+](c2ccccc2)(c2ccccc2)c2ccccc2)CC(C)(C)N1[O] [mitoTEMPO]
concentration within the mitochondrial matrix (mitochondrial matrix): more than a five hundred-fold
